# Experimental data as given in ChEMBL document CHEMBL1201862, “PubChem BioAssay data set” (2004).
# The source made the active and inactive calls.
# Legend:
# [1] = Jurkat T cell cytotoxicity, dose response, cytotoxicity control for P. falciparum gametocyte viability project, luminescence (AID 1117277); assay type: functional, cell-based;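 also: potency reflects loss of cellular ATP meaning fewer viable cells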
# [2] = P. falciparum late gametocyte killing, dose response, luminescence (AID 1117278); assay type: functional, cell-based;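 also: gametocytes exposed to compound for 24 hours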
# [3] = cytotoxicity toward HCT116 cells – cell-based, CellTiter-Glo luminescence, IC50, dose response (AID 1117332); assay type: functional; settings: HCT-116
# [4] = cytotoxicity toward HT-29 cells – cell-based, CellTiter-Glo luminescence, IC50, dose response (AID 1117330); assay type: functional
# [5] = SNU-C1 cell viability reduction, dose response, CellTiter-Glo luminescence (AID 1117323); assay type: functional, cell-based
# [6] = HeLa 4N DNA content increase, dose response, cell-based, IC50 (AID 1117351); assay type: functional
# [7] = RKO cell viability reduction, dose response, CellTiter-Glo luminescence (AID 1117322); assay type: functional
# [8] = HeLa 2N DNA content increase, dose response, cell-based, IC50 (AID 1117349); assay type: functional
# [9] = cytotoxicity toward Colo320 cells – cell-based, CellTiter-Glo luminescence, IC50, dose response (AID 1117334); assay type: functional; settings: COLO 320
# [10] = CellTiter-Glo luminescent dose response of DLD-1 viability loss (AID 1117352); assay type: functional
# [11] = Concentration-dependent survival of SW480 colon cancer line, luminescence detection with CellTiter-Glo, half-maximal inhibitory concentration (AID 1117338); assay type: functional
# [12] = biological target: G-protein coupled receptor 183 (Homo sapiens, UniProt P32249); assay: SAR confirmation of small molecule antagonists of the EBI2 receptor via a luminescent beta-arrestin assa.; assay type: functional
# [13] = biological target: T1, Probable nicotinate-nucleotide adenylyltransferase (Staphylococcus aureus (strain N315), UniProt P65502); assay type: functional, Staphylococcus aureus subsp. aureus N315; settings: read-out: IC50_Mean;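 as to IC50 Mean: confirmatory dose-response retesting of NadD inhibitor hits first found in an ultra-high-throughput screen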
# [14] = biological target: T2, Carboxy-terminal domain RNA polymerase II polypeptide A small phosphatase 1 (Homo sapiens, UniProt Q9GZU7); assay: inhibitors of CTDSP1, concentration-response testing, biochemical assay, absorbance-based, actives from ultra-high-throughput screening (AID 540297); assay type: functional
# T2 sequence (Q9GZU7 whole entry): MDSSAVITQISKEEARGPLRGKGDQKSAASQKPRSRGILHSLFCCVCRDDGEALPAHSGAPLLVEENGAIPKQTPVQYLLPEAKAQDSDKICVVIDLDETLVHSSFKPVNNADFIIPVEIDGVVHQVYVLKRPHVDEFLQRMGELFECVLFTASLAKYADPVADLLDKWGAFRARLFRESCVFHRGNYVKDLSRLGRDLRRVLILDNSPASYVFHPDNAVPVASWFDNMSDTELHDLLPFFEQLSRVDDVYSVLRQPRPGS
# [15] = biological target: Protein Tat (Human immunodeficiency virus type 1 group M subtype B (isolate HXB2)(HIV-1), UniProt P04608); assay type: functional;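 also: tat binding to TAR RNA read out by fluorescence polarization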
# [16] = biological target: T3, Small ubiquitin-related modifier 1 (Homo sapiens, UniProt P63165); assay: inhibitors of SUMO1 peptide binding, dose response, biochemical, fluorescence polarization, uHTS hits (AID 624382); assay type: functional; settings: read-out: IC50_Mean
# [17] = biological target: T3, Small ubiquitin-related modifier 1; assay: inhibitors of SUMO1 partner interactions, dose response, biochemical, FRET (AID 624383); assay type: functional; settings: read-out: IC50_Mean
# [18] = THP-1 cell cytotoxicity, dose response, cytotoxicity control for Vif-APOBEC3G degradation inhibitor project, THP-1 cells (AID 1117359); assay type: functional; settings: Human immunodeficiency virus 1, THP-1
# [19] = biological target: T1, Probable nicotinate-nucleotide adenylyltransferase; assay type: functional, Staphylococcus aureus subsp. aureus N315
# [20] = M. tuberculosis H37Rv growth inhibitors, H37Rv strain (AID 1626); assay type: functional
# [21] = HepG2 cell cytotoxicity, dose response, cytotoxicity control, cherry-picked samples (AID 1159577); assay type: functional, cell-based
# [22] = P. falciparum Dd2 growth inhibitors, dose response, SYBR Green, cherry-picked samples (AID 1159567); assay type: functional, cell-based
# [23] = P. falciparum 3D7-ScDHODH growth inhibitors, dose response, SYBR Green, dry powder samples (AID 1159570); assay type: functional, cell-based;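 also: parasite growth measured after 72 hours of compound exposure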
# [24] = P. falciparum Dd2 growth inhibitors, dose response, SYBR Green, dry powder samples (AID 1159566); assay type: functional, cell-based;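 also: potency for growth inhibition with lower SYBR green DNA signal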
# [25] = P. falciparum ATP4 D1247Y mutant growth inhibitors, dose response, NITD609-resistant line, SYBR Green, dry powder (AID 1159571); assay type: functional, cell-based;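 also: parasites synchronized at ring stage by sorbitol before testing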
# T3 sequence (P63165 whole entry): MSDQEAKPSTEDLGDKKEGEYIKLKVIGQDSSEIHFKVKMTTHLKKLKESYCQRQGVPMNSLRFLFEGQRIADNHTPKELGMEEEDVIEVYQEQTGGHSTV
# T1 sequence (P65502 whole entry, the tested form may be a part): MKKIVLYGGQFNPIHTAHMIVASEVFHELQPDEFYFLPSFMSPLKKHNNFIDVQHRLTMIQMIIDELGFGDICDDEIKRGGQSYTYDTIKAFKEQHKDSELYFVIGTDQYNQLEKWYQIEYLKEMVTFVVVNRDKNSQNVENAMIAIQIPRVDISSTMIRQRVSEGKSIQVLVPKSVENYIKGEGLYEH
# Chain of Protein Tat (P04608 whole entry): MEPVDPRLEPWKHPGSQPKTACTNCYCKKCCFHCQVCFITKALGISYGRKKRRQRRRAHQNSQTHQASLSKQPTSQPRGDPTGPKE
# Chain of G-protein coupled receptor 183 (P32249 whole entry): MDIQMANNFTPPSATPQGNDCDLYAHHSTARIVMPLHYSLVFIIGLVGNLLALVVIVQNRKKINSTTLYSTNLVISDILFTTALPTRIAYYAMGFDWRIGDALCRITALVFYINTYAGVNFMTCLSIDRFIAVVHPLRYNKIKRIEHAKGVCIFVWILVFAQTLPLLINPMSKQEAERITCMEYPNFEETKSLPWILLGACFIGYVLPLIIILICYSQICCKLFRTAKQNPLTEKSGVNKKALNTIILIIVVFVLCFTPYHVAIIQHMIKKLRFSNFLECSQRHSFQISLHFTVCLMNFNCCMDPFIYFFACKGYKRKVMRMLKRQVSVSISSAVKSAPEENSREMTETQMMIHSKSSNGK
structure (smiles),measurement,setting,value
Cc1ccc2nc(-c3ccccc3)c(-c3ccccc3)nc2c1,IC50,[1],> 83.3 µM (inactive)
same,IC50,[2],> 109 µM (inactive)
COc1ccc(-c2ccc3cc(C(=O)O)ccc3c2)cc1C12CC3CC(CC(C3)C1)C2,IC50,[3],0.59 µM (active)
same,IC50,[4],1.12 µM (active)
same,IC50,[5],1.78 µM (active)
same,IC50,[6],> 10 µM (inactive)
same,IC50,[7],0.444 µM (active)
same,IC50,[8],> 10 µM (inactive)
same,IC50,[9],0.787 µM (active)
same,IC50,[10],0.597 µM (active)
same,IC50,[11],0.405 µM (active)
O=C(/C=C/c1ccc(Br)cc1F)N1CCN(S(=O)(=O)c2ccc(Br)cc2)CC1,IC50,[12],0.0655 µM (active)
O=C(COC(=O)c1c2c(nc3ccccc13)/C(=C\c1ccco1)CC2)NC1CCCC1,IC50,[13],16.9 µM (active)
same,IC50,[14],2.49 µM (active)
same,IC50,[15],> 100 µM (active)
same,IC50,[16],> 66.6 µM (inactive)
same,IC50,[17],10.4 µM (active)
same,CC50,[18],> 40 µM (active)
same,IC50,[19],8.49 µM (active)
CCOc1ccc(NC(=O)CCN2CCN(c3ccccc3)CC2)cc1,IC50,[20],> 100 µM (active)
Fc1cccc(-c2ccc([C@@H]3[C@@H]4CN(Cc5cccnc5)C[C@H]3N4)cc2)c1,AC50,[21],13 µM (active)
same,AC50,[22],0.348 µM (active)
C[C@@H]1CN([C@@H](C)CO)C(=O)Cc2cc(NC(=O)Nc3ccc4c(c3)OCO4)ccc2O[C@@H]1CN(C)CC1CC1,AC50,[23],4.73 µM (active)
same,AC50,[24],2.02 µM (active)
same,AC50,[25],2.76 µM (active)
same,AC50,[22],2.37 µM (active)
